According to US20260109707A1, “HETEROBIFUNCTIONAL COMPOUNDS AND METHODS OF TREATING DISEASE” (Halda Therapeutics OpCo. Inc., priority 2022, published 2026):

How the values were obtained:
T47D cells = assay: Cellular growth inhibition assay for T47D cells (CellTiter-Glo, 72 hours); assay type: cell-based, human; conditions: 72 hours treatment
Method: T47D cells were purchased from American Type Cell Culture (ATCC Cat #HTB-133) and then seeded on poly-D-lysine coated, black clear-bottom 384-well plates at 3000/well in 25 μL Dulbecco's Modified Eagle Medium (DMEM) supplemented with 10% w/w Fetal bovine serum (FBS), 0.2 units/mL recombinant human insulin (Gibco Cat #12585014), and 1% w/w Pen-Strep. Pen-Strep is a commercially available mixture of penicillin G and streptomycin, which is used in mammalian cell culture media to prevent bacterial contamination. Dulbecco's Modified Eagle Medium (DMEM) supplemented with 10% w/w fetal bovine serum (FBS), 0.2 units/mL recombinant human insulin, and 1% w/w Pen-Strep is herein referred to as Treatment Medium. Following seeding of cells in the plates, the plates were spun at 300×g for 30 seconds, then equilibrated to room temperature for 30 minutes, and then deposited in a humidified tissue culture incubator maintained at 37° C. with 5% CO2.
At 24 hours after seeding of the cells, dilutions of test compound were prepared in DMSO and dissolved in Treatment Medium, to achieve a final DMSO concentration of 0.5% w/w, thereby providing the Test Compound Solution. A 25 μL aliquot of the Test Compound Solution was added to cells in the well plates. An equal volume of a solution containing DMSO and Treatment Medium was used as a negative control. Following treatment of cells with Test Compound Solution or said equal volume of a solution containing DMSO and Treatment Medium, the plates were spun at 300×g for 30 seconds, and then left in an incubator for 72 hours.
At the end of the treatment duration, cell viability was quantified with CellTiter-Glo 2.0 reagent (Promega Cat #G9243). For this purpose, plates were equilibrated to room temperature for 30 minutes, and then 25 μL of CellTiter-Glo 2.0 reagent was added to cells in the plate wells. Plates were then agitated on a shaker for two minutes at 500 rpm and subsequently incubated at room temperature for 10 minutes. Following incubation, the plates were spun at 3000×g for 30 seconds, then sealed with an optical adhesive cover, and luminescence readings were measured with an EnVision Plate Reader (Perkin Elmer).
Data was normalized using zero luminescence for baseline. A four-parameter non-linear regression curve fit was applied to dose-response data in GraphPad Prism data analysis software to determine the half-maximal growth inhibitory concentration (GI50) for each test compound.

VCaP cells = assay: Cellular growth inhibition assay for VCaP cells (CellTiter-Glo, 72 hours); assay type: cell-based, human; conditions: Homo sapiens, VCaP, 72 h
Method in brief: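 Luminescent viability signal after 72 h of compound exposure gave GI50 values by four-parameter nonlinear regression. Compounds were added in 0.5% DMSO to cells plated 24 h earlier at 5000/well in DMEM containing 10% FBS.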

[1] = system: T-Rex 293 cell line SC3 cells having increased expression of androgen receptor protein due to exposure to doxycycline; assay: Cellular growth inhibition assay, T-Rex 293 SC3 cells with doxycycline (CellTiter-Glo, 72 hours); assay type: cell-based; conditions: 72 h, T-Rex 293 SC3 cells with increased androgen receptor expression due to doxycycline (10 ng/mL)
Method in brief: (§1)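 Growth inhibition is measured in an inducible AR-expressing T-Rex 293 clone, SC3, cultured with or without 10 ng/mL doxycycline in hormone-depleted medium. Test compounds are applied for 72 hours. GI50 values derive from CellTiter-Glo 2.0 signal fitted by four-parameter regression.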

[2] = system: T-Rex 293 cell line SC3 cells lacking increased expression of androgen receptor protein; assay: Cellular growth inhibition assay, T-Rex 293 SC3 cells without doxycycline (CellTiter-Glo, 72 hours); assay type: cell-based; conditions: T-Rex 293 cell line SC3 cells not exposed to doxycycline (lacking increased androgen receptor expression)
Method in brief: as §1

Structure (SMILES)	GI50 (T47D cells; Homo sapiens, T47D, 72 h) [nM]	GI50 (VCaP cells) [nM]	GI50 [1] [nM]	GI50 ([2]; 72 h) [nM]	GI50 (T47D cells) [nM]	GI50 [2] [nM]
CCNC(=O)C[C@@H]1N=C(c2ccc(N(C)CC3CN(c4ccc(C(=O)N[C@H]5CC[C@H](Oc6ccc(C#N)c(Cl)c6)CC5)nn4)C3)cc2)c2c(sc(C)c2C)-n2c(C)nnc21 [I-30]	500 to 1500	< 500	< 500	500 to 1500		
CCNC(=O)C[C@@H]1N=C(c2ccc(CCC3CN(c4ccc(C(=O)N[C@H]5CC[C@H](Oc6ccc(C#N)c(Cl)c6)CC5)nn4)C3)cc2)c2c(sc(C)c2C)-n2c(C)nnc21 [I-31]	500 to 1500	< 500	< 500	500 to 1500		
CCNC(=O)C[C@@H]1N=C(c2ccc(CN3CC4CN(c5ccc(C(=O)N[C@H]6CC[C@H](Oc7ccc(C#N)c(Cl)c7)CC6)nn5)CC4C3)cc2)c2c(sc(C)c2C)-n2c(C)nnc21 (stereo partly shown) [I-32]	500 to 1500	< 500	< 500	1500 to 3000		
CCNC(=O)C[C@@H]1N=C(c2ccc(CCCC3CCN(c4ccc(C(=O)N[C@H]5CC[C@H](Oc6ccc(C#N)c(Cl)c6)CC5)nn4)CC3)cc2)c2c(sc(C)c2C)-n2c(C)nnc21 [I-33]	500 to 1500	< 500		500 to 1500		
CCNC(=O)C[C@@H]1N=C(c2ccc(N(C)CCC3CCN(c4ccc(C(=O)N[C@H]5CC[C@H](Oc6ccc(C#N)c(Cl)c6)CC5)nn4)CC3)cc2)c2c(sc(C)c2C)-n2c(C)nnc21 [I-34]	500 to 1500	500 to 1500	< 500	500 to 1500		
CCNC(=O)C[C@@H]1N=C(c2ccc(N(C)CCN3CCN(c4ccc(C(=O)N[C@H]5CC[C@H](Oc6ccc(C#N)c(Cl)c6)CC5)nn4)CC3)cc2)c2c(sc(C)c2C)-n2c(C)nnc21 [I-35]	500 to 1500	< 500	< 500	500 to 1500		
CCNC(=O)C[C@@H]1N=C(c2ccc(N3CCC(CN4CCN(c5ccc(C(=O)N[C@H]6CC[C@H](Oc7ccc(C#N)c(Cl)c7)CC6)nn5)CC4)CC3)cc2)c2c(sc(C)c2C)-n2c(C)nnc21 [I-36]	500 to 1500	< 500	< 500	500 to 1500		
CCNC(=O)C[C@@H]1N=C(c2ccc(OC3CC(OC4CCN(c5ccc(C(=O)N[C@H]6CC[C@H](Oc7ccc(C#N)c(Cl)c7)CC6)nn5)CC4)C3)cc2)c2c(sc(C)c2C)-n2c(C)nnc21 (stereo partly shown) [I-37]	< 500	< 500	< 500	< 500		
CCNC(=O)C[C@@H]1N=C(c2ccc(CN3CCN(c4ccc(C(=O)N[C@H]5CC[C@H](Oc6ccc(C#N)c(Cl)c6)CC5)nn4)CC3)cc2)c2c(sc(C)c2C)-n2c(C)nnc21 [I-38]	500 to 1500	< 500	< 500	500 to 1500		
CCNC(=O)C[C@@H]1N=C(c2ccc(N3CC(N4CCN(c5ccc(C(=O)N[C@H]6CC[C@H](Oc7ccc(C#N)c(Cl)c7)CC6)nn5)CC4)C3)cc2)c2c(sc(C)c2C)-n2c(C)nnc21 [I-40]	500 to 1500	< 500	< 500	500 to 1500		
CCNC(=O)C[C@@H]1N=C(c2ccc(N3CCN(C4CN(c5ccc(C(=O)N[C@H]6CC[C@H](Oc7ccc(C#N)c(Cl)c7)CC6)nn5)C4)CC3)cc2)c2c(sc(C)c2C)-n2c(C)nnc21 [I-41]	< 500	< 500	< 500	500 to 1500		
CCNC(=O)C[C@@H]1N=C(c2ccc(N3CCC(N(C)C4CCN(c5ccc(C(=O)N[C@H]6CC[C@H](Oc7ccc(C#N)c(Cl)c7)CC6)nn5)CC4)CC3)cc2)c2c(sc(C)c2C)-n2c(C)nnc21 [I-43]	500 to 1500	< 500	< 500	1500 to 3000		
CCNC(=O)C[C@@H]1N=C(c2ccc(OC3CN(c4ccc(C(=O)N[C@H]5CC[C@H](Oc6ccc(C#N)c(Cl)c6)CC5)nn4)C3)cc2)c2c(sc(C)c2C)-n2c(C)nnc21 [I-47]	500 to 1500	500 to 1500	< 500	500 to 1500		
CCNC(=O)C[C@@H]1N=C(c2ccc(OCCN(C)c3ccc(C(=O)N[C@H]4CC[C@H](Oc5ccc(C#N)c(Cl)c5)CC4)nn3)cc2)c2c(sc(C)c2C)-n2c(C)nnc21 [I-49]	500 to 1500	< 500	< 500	500 to 1500		
Cc1sc2c(c1C)C(c1ccc(CCC3CCN(c4ccc(C(=O)NC5CCC(Oc6ccc(C#N)c(Cl)c6)CC5)nn4)CC3)cc1)=N[C@@H](Cc1ncco1)c1nnc(C)n1-2 (stereo partly drawn) [I-74, N-[4-(3-chloro-4-cyano-phenoxy)cyclohexyl]-6-[4-[2-[4-[(9S)-4,5,13-trimethyl-9-(oxazol-2-ylmethyl)-3-thia-1,8,11,12-tetrazatricyclo[8.3.0.02,6]trideca-2(6),4,7,10,12-pentaen-7-yl]phenyl]ethyl]-1-piperidyl]pyridazine-3-carboxamide]	< 500	< 500	< 500	< 500		
Cc1sc2c(c1C)C(c1ccc(CCCC3CCN(c4ccc(C(=O)N[C@H]5CC[C@H](Oc6ccc(C#N)c(Cl)c6)CC5)nn4)CC3)cc1)=NC(Cc1ncco1)c1nnc(C)n1-2 (stereo partly shown) [I-75]	< 500	< 500	< 500	< 500		
Cc1sc2c(c1C)C(c1ccc(OC3CC4(CCN(c5ccc(C(=O)N[C@H]6CC[C@H](Oc7ccc(C#N)c(Cl)c7)CC6)nn5)CC4)C3)cc1)=NC(Cc1ncco1)c1nnc(C)n1-2 (stereo partly shown) [I-77]	1500 to 3000	< 500	< 500	500 to 1500		
Cc1sc2c(c1C)C(c1ccc(OCCC3CCN(c4ccc(C(=O)N[C@H]5CC[C@H](Oc6ccc(C#N)c(Cl)c6)CC5)nn4)CC3)cc1)=NC(Cc1ncco1)c1nnc(C)n1-2 (stereo partly shown) [I-78]	< 500	< 500	< 500	< 500		
Cc1sc2c(c1C)C(c1ccc(OC3CC4(CCN(c5ccc(C(=O)N[C@H]6CC[C@H](Oc7ccc(C#N)c(Cl)c7)CC6)nn5)CC4)C3)cc1)=N[C@@H](Cc1ncco1)c1nnc(C)n1-2 [I-79]	< 500	< 500	< 500	< 500		
Cc1sc2c(c1C)C(c1ccc(C#CC3CC4(C3)CN(c3ccc(C(=O)N[C@H]5CC[C@H](Oc6ccc(C#N)c(Cl)c6)CC5)nn3)C4)nc1)=N[C@@H](Cc1ncco1)c1nnc(C)n1-2 [I-282]	> 3000	> 3000				
Cc1sc2c(c1C)C(c1ccc(CC3CCC4CN(c5ccc(C(=O)N[C@H]6CC[C@H](Oc7ccc(C#N)c(Cl)c7)CC6)nn5)CCN4C3)cc1)=N[C@@H](Cc1ncco1)c1nnc(C)n1-2 (stereo partly shown) [I-283]	< 500	< 500				
Cc1sc2c(c1C)C(c1ccc(OC[C@H]3C[C@]4(CCCN(c5ccc(C(=O)N[C@H]6CC[C@H](Oc7ccc(C#N)c(Cl)c7)CC6)nn5)C4)C3)cc1)=N[C@@H](C)c1nnc(C)n1-2 [I-354]		< 500			500 to 1500	> 3000
